Test results reported in US20040005299A1, “Method for producing pseudo islets” (Bayer Pharmaceuticals Corporation, priority 2002, published 2004).
pEC50, pIC50: −log10 of the molar value. Where two headings read alike, the source gives them in different places.

How the values were obtained:
[1] = tested on: pseudo islets (dispersed islet cells); test: cells; assay type: cell-based, Sprague Dawley rats; settings: for pEC50: 8 mM glucose, read-out: EC50 on insulin release; for pIC50: dose-dependent, read-out: IC50 of inhibition of glucose-stimulated insulin release
Protocol: Pancreata from four Sprague Dawley rats were divided into small pieces approximately 1 mm^2 or smaller in size. The tissue was then rinsed three times with Hanks-Hepes buffer (127 mM NaCl, 5.4 mM KCl, 0.34 mM Na2HPO4, 4.4 mM KH2PO4, 20 mM HEPES, 1.2 mM CaCl2/5 mM glucose), and digested with collagenase (Liberase, 0.25 mg/ml, Roche Diagnostic Corp., Indianapolis, Ind.) at 37° C. in a water bath shaker for 10 minutes.
The digested pancreata tissue was rinsed three times with 50 ml of Hanks-Hepes buffer to remove the collagenase. The tissue pellet was then filtered through a 250 μm filter and the filtrate was mixed with 16 ml of 27% Ficoll (Sigma, St. Louis, Mo.) w/v in Hanks-Hepes buffer. Three layers of Ficoll (23%, 20.5%, and 11%, respectively; 8 ml of each concentration) were then loaded on top of the mixture of islet tissue in 27% Ficoll to form a gradient.
The Ficoll gradient was then centrifuged at 1,600 rpm for 10 minutes at room temperature. The pancreatic islets were concentrated at the interphase between 11% and 20.5%, and between 20.5% and 23% depending on the size of islets. The islets were collected from the two interphases and rinsed twice with Ca^++-free Hanks-Hepes buffer. The islets were then suspended in 5 ml Ca^++-free Hanks-Hepes buffer containing 1 mM EDTA and incubated for 8 minutes at room temperature.
Trypsin and DNAse I were added to the islet suspension for a final concentration of 25 μg/ml and 2 μg/ml, respectively. This suspension was incubated with shaking at 30° C. for 10 minutes. The trypsin digestion was stopped by adding 40 ml RPMI 1640 (GIBCO Life Technologies, Invitrogen, Carlsbad, Calif.) with 10% FBS. The trypsin digested islet cells were then filtered through a 63 μm nylon filter (PGC Scientific, Frederick, Md.) to remove large cell clusters.
The dispersed islet cells were then washed, counted using hemacytometer under the microscope, and seeded into “V-bottom” 96-well plates (2,500 cells per well). However, a range of 1,000 to 10,000 cells per well may used. The dispersed islet cell suspension was then centrifuged at 1,000 rpm for 5 minutes. The Hanks-Hepes buffer was removed and replaced with 200 μl RPMI 1640 medium containing 10% FBS, 1% Penicillin-Streptomycin, and 2 mM L-glutamine. Next, the 96-well plates were centrifuged at 1,000 rpm for 5 minutes to collect the dispersed islet cells concentrated at the V-bottom of the plate forming pseudo islets. These pseudo islets were then cultured overnight in a cell culture incubator at 37° C. with 5% CO2, and then used for assays.
(§1) Pseudo islets were prepared by the method described in Example 1. Following an overnight incubation, the RPMI 1640 medium was removed and replaced by 100 μl Krebs-Ringer-Hepes buffer (115 mM NaCl, 5.0 mM KCl, 24 mM NaHCO3, 2.2 mM CaCl2, 1 mM MgCl2, 20 mM HEPES, 0.25% BSA, 0.002% Phenol Red, pH 7.35-7.40). The cell suspension was then centrifuged for 5 minutes at 1,000 rpm to pellet the dispersed islet cells.
(§2) Pseudo islets in 96-well plates were incubated in a water bath at 37° C. continuously gassed with 95% O2/5% CO2 for pre-incubation for 30 minutes. The pre-incubation buffer was removed and replaced with 50 μl incubation buffer (Krebs-Ringer-Hepes buffer, pH 7.35-7.40) containing various test substrates.
The 96-well plate was centrifuged again at 1,000 rpm for 5 minutes to form pseudo islets. These pseudo islets in 96-well plates were statically incubated in a water bath at 37° C. continuously gassed with 95% O2/5% CO2 for 60 minutes. The incubation buffer (25 μl) was collected after the 60-minute incubation and used for an insulin content assay (ELISA assay, ALPCO, N.H.).

[2] = tested on: pseudo islets co-cultured with fibroblasts; test: Insulin release from pseudo islets co-cultured with fibroblasts; assay type: cell-based, Sprague Dawley rats; settings: increasing amounts of GLP-1
Protocol: Dispersed islet cells (prepared by the method described in Example 1) were washed with regular RPMI 1640 medium with 10% FBS, counted using hemacytometer under the microscope, and seeded into “V-bottom” 96-well plates with fibroblasts (2,500 islet cells and 1,250 fibroblasts cells per well). The cell suspension was then centrifuged at 1,000 rpm for 5 minutes to collect the dispersed islet cells concentrated at the V-bottom of the plate forming pseudo islets. These pseudo islets were then co-cultured with the fibroblasts cells overnight in a cell culture incubator at 37° C. with 5% CO2, and then used for assays.
as §1
as §2, with “substrates. […]” for “substrates.”

With `COc1ccc(Cl)cc1C(=O)NCCc1ccc(S(=O)(=O)NC(=O)NC2CCCCC2)cc1` [glybenclamide] the pEC50 ([1]; Rattus norvegicus) was 6.43.

For `NC[C@H](O)c1ccc(O)c(O)c1` [NE, norepinephrine], the pIC50 ([1]; Rattus norvegicus) was 7.25.

`CC(C)Cn1c(=O)n(C)c(=O)c2[nH]cnc21` [IBMX] was tested, and the pEC50 [1] was 4.66.

In the case of `CC[C@H](C)[C@H](NC(=O)[C@H](Cc1ccccc1)NC(=O)[C@H](CCC(=O)O)NC(=O)[C@H](CCCCN)NC(=O)[C@H](C)NC(=O)[C@H](C)NC(=O)[C@H](CCC(N)=O)NC(=O)CNC(=O)[C@H](CCC(=O)O)NC(=O)[C@H](CC(C)C)NC(=O)[C@H](Cc1ccc(O)cc1)NC(=O)[C@H](CO)NC(=O)[C@H](CO)NC(=O)[C@@H](NC(=O)[C@H](CC(=O)O)NC(=O)[C@H](CO)NC(=O)[C@@H](NC(=O)[C@H](Cc1ccccc1)NC(=O)[C@@H](NC(=O)CNC(=O)[C@H](CCC(=O)O)NC(=O)[C@H](C)NC(=O)[C@@H](N)Cc1c[nH]cn1)[C@@H](C)O)[C@@H](C)O)C(C)C)C(=O)N[C@@H](C)C(=O)N[C@@H](Cc1c[nH]c2ccccc12)C(=O)N[C@@H](CC(C)C)C(=O)N[C@H](C(=O)N[C@@H](CCCCN)C(=O)NCC(=O)N[C@@H](CCCNC(=N)N)C(N)=O)C(C)C` [GLP-1], the “GLP-1 mediated insulin secretion on co-culture with fibroblasts” value [2] was “enhanced”.

`C=C[C@@]1(C)CC(=O)[C@]2(O)[C@@]3(C)[C@@H](O)CCC(C)(C)[C@@H]3[C@H](O)[C@H](OC(C)=O)[C@@]2(C)O1` [forskolin] was tested, and the pEC50 ([1]; Rattus norvegicus) was 6.05.

`C[C@H](N)C(=O)NCC(=O)N[C@H]1CSSC[C@@H](C(=O)O)NC(=O)[C@H](CO)NC(=O)[C@H]([C@@H](C)O)NC(=O)[C@H](Cc2ccccc2)NC(=O)[C@H]([C@@H](C)O)NC(=O)[C@H](CCCCN)NC(=O)[C@H](Cc2c[nH]c3ccccc23)NC(=O)[C@H](Cc2ccccc2)NC(=O)[C@H](Cc2ccccc2)NC(=O)[C@H](CC(N)=O)NC(=O)[C@H](CCCCN)NC1=O` [somatostain] gave a pIC50 [1] of 9.05.

For `CC(=O)OCC[N+](C)(C)C` [Ach, Acetylcholine], the pEC50 ([1]; Rattus norvegicus) was 5.00.
